Assay results reported in patent publication US11753407B2, “Compounds for treating spinal muscular atrophy” (PTC Therapeutics, Inc., priority 2012, dated 2023).

Columns and labels:
[1] = test system: SMN2 minigene mRNA (SMN2-A minigene) in HEK293H cells; experiment: SMN2 minigene mRNA splicing RT-qPCR assay in cultured cells; type: cell-based, human; details: Homo sapiens, HEK293-H; concentration increasing full length SMN2 mRNA 1.5-fold relative to vehicle-treated cells; HEK293H cells with SMN2-A minigene, 24 hours, 7-point concentration data; read-out: EC1.5x for production of full length SMN2 mRNA
Procedure: The reverse transcription-quantitative PCR-based (RT-qPCR) assay is used to quantify the level of the full length SMN2 minigene mRNA containing SMN2 exon 7 in a HEK293H cell line stably transfected with said minigene and treated with a test compound.
Protocol. HEK293H cells stably transfected with the SMN2-A minigene construct described above (10,000 cells/well) are seeded in 200 μL of cell culture medium (DMEM plus 10% FBS, with 200 μg/mL hygromycin) in 96-well flat-bottom plates and the plate is immediately swirled to ensure proper dispersal of cells, forming an even monolayer of cells. Cells are allowed to attach for at least 4-6 hours. Test compounds are serially diluted 3.16-fold in 100% DMSO to generate a 7-point concentration curve. A solution of test compound (1 μL, 200× in DMSO) is added to each cell-containing well and the plate is incubated for 24 hours in a cell culture incubator (37° C., 5% CO2, 100% relative humidity). 2 replicates are prepared for each test compound concentration. The cells are then lysed in Cells-To-Ct lysis buffer and the lysate is stored at −80° C.
Primer SMN Forward A (SEQ ID NO. 1) hybridizes to a nucleotide sequence in exon 7 (nucleotide 22 to nucleotide 40), primer SMN Reverse A (SEQ ID NO. 2) hybridizes to a nucleotide sequence in the coding sequence of Firefly luciferase, SMN Probe A (SEQ ID NO. 3) hybridizes to a nucleotide sequence in exon 7 (nucleotide 50 to nucleotide 54) and exon 8 (nucleotide 1 to nucleotide 21). The combination of these three oligonucleotides detects only SMN1 or SMN2 minigenes (RT-qPCR) and will not detect endogenous SMN1 or SMN2 genes.
The SMN forward and reverse primers are used at final concentrations of 0.4 μM. The SMN probe is used at a final concentration of 0.15 μM. The GAPDH primers are used at final concentrations of 0.2 μM and the probe at 0.15 μM.
The SMN2-minigene GAPDH mix (15 μL total volume) is prepared by combining 7.5 μL of 2× RT-PCR buffer, 0.4 μL of 25× RT-PCR enzyme mix, 0.75 μL of 20× GAPDH primer-probe mix, 4.0075 μL of water, 2 μL of 10-fold diluted cell lysate, 0.06 μL of 100 μM SMN forward primer, 0.06 μL of 100 μM SMN reverse primer, and […].
PCR is carried out at the following temperatures for the indicated time: Step 1: 48° C. (15 min); Step 2: 95° C. (10 min); Step 3: 95° C. (15 sec); Step 4: 60° C. (1 min); then repeat Steps 3 and 4 for a total of 40 cycles.
Each reaction mixture contains both SMN2-A minigene and GAPDH primers/probe sets (multiplex design), allowing simultaneous measurement of the levels of two transcripts.
Two SMN spliced products are generated from the SMN2 minigene. The first spliced product containing exon 7, corresponding to full length SMN2 mRNA, is referred to herein using the term “SMN2 minigene FL.” The second spliced product lacking exon 7 is referred to herein using the term “SMN2 minigene Δ7.”
The increase of SMN2 minigene FL mRNA relative to that in cells treated with vehicle control is determined from real-time PCR data using a modified ΔΔCt method (as described in Livak and Schmittgen, Methods, 2001, 25:402-8). The amplification efficiency (E) is calculated from the slope of the amplification curve for SMN2 minigene FL and GAPDH individually. The abundances of SMN2 minigene FL and GAPDH are then calculated as (1+E)^−Ct, where Ct is the threshold value for each amplicon. The abundance of SMN2 minigene FL is normalized to GAPDH abundance. The normalized SMN2 minigene FL abundance from test compound-treated samples is then divided by normalized SMN2 minigene FL abundance from vehicle-treated cells to determine the level of SMN2 FL mRNA relative to vehicle control.
For compounds of Formula (I) or a form thereof disclosed herein, Table 4 provides the […] for production of full length SMN2 mRNA that was obtained from the 7-point concentration data generated for each test compound according to the procedure of Biological Example 2. […]

[2] = test system: Smn protein in SMA patient fibroblast cells (GM03813); experiment: Smn protein assay in cultured cells (SMN HTRF); type: cell-based, human; details: SMA patient fibroblast cells, 48 hours; for EC1.5x for Smn protein expression: 7-point concentration curve, SMN HTRF, concentration producing 1.5 times Smn protein vs DMSO vehicle control; for maximum fold (Fold) increase of Smn protein: 7-point concentration data, fold relative to vehicle control
Procedure: The SMN HTRF (homogeneous time resolved fluorescence) assay is used to quantify the level of Smn protein in SMA patient fibroblast cells treated with test compounds.
Protocol. Cells are thawed and cultured in DMEM-10% FBS for 72 hours. Cells are trypsinized, counted and re-suspended to a concentration of 25,000 cells/mL in DMEM-10% FBS. The cell suspension is plated at 5,000 cells per well in a 96 well microtiter plate and incubated for 3 to 5 hours. […] Test compounds are serially diluted 3.16-fold in 100% DMSO to generate a 7-point concentration curve. 1 μL of test compound solution is transferred to cell-containing wells and cells are incubated for 48 hours in a cell culture incubator (37° C., 5% CO2, 100% relative humidity). Triplicate samples are set up for each test compound concentration. After 48 hours, the supernatant is removed from the wells and 25 μL of the RIPA lysis buffer, containing protease inhibitors, is added to the wells and incubated with shaking at room temperature for 1 hour. 25 μL of the diluent is added and then 35 μL of the resulting lysate is transferred to a 384-well plate, where each well contains 5 μL of the antibody solution (1:100 dilution of anti-SMN d2 and anti-SMN kryptate in SMN reconstitution buffer). The plate is centrifuged for 1 minute to bring the solution to the bottom of the wells, then incubated overnight at room temperature. Fluorescence for each well of the plate at 665 nm and 620 nm is measured on an EnVision multilabel plate reader (Perkin-Elmer).
The normalized fluorescence signal is calculated for each sample, Blank and vehicle control well by dividing the signal at 665 nm by the signal at 620 nm. Normalizing the signal accounts for possible fluorescence quenching due to the matrix effect of the lysate. The ΔF value (a measurement of Smn protein abundance as a percent value) for each sample well is calculated by subtracting the normalized average fluorescence for the Blank control wells from the normalized fluorescence for each sample well, then dividing this difference by the normalized average fluorescence for the Blank control wells and multiplying the resulting value by 100. The ΔF value for each sample well represents the Smn protein abundance from test compound-treated samples. The ΔF value for each sample well is divided by the ΔF value for the vehicle control wells to calculate the fold increase in Smn protein abundance relative to the vehicle control.
For compounds of Formula (I) or a form thereof disclosed herein, Table 9 provides the EC1.5× for Smn protein expression that was obtained from the 7-point concentration data generated for each test compound according to the procedure of Biological Example 7. The term “EC1.5× for Smn protein expression” is defined as that concentration of test compound that is effective in producing 1.5 times the amount of Smn protein in an SMA patient fibroblast cell compared to the amount produced from the DMSO vehicle control. An EC1.5× for Smn protein expression between >3 μM and ≤10 μM is indicated by one star (*), an EC1.5× between >1 μM and ≤3 μM is indicated by two stars (**), an EC1.5× between >0.3 μM and ≤1 μM is indicated by three stars (***) and an EC1.5x≤0.3 μM is indicated by four stars (****).
For compounds of Formula (I) or a form thereof disclosed herein, Table 10 provides the maximum fold (Fold) increase of Smn protein that was obtained from the 7-point concentration data generated for each test compound according to the procedure of Biological Example 7. A maximum fold increase of ≤1.2 is indicated by one star (*), a fold increase between >1.2 and ≤1.35 is indicated by two stars (**), a fold increase between >1.35 and ≤1.5 is indicated by three stars (***), a fold increase between >1.5 and ≤1.65 is indicated by four stars (****) and a fold increase >1.65 is indicated by five stars (*****).

Structure (SMILES) | EC (1.5-fold increase) [1] [µM] | EC1.5x for Smn protein expression [2] | maximum fold (Fold) increase of Smn protein [2]
Cc1nc2ccc(-c3cc(=O)n4cc(N5CCC(N)CC5)ccc4n3)cc2o1 [Compound 242, 7-(4-aminopiperidin-1-yl)-2-(2-methyl-1,3-benzoxazol-6-yl)-4H-pyrido[1,2-a]pyrimidin-4-one] | < 0.1 | **** (an EC1.5x≤0.3 μM is indicated by four stars (****)) | **** (a fold increase between >1.5 and ≤1.65 is indicated by four stars (****))
Cc1nc2ccc(-c3cc(=O)n4cc(N5C[C@H]6CNC[C@H]6C5)ccc4n3)cc2o1 [Compound 243, 7-[(3aR,6aS)-hexahydropyrrolo[3,4-c]pyrrol-2(1H)-yl]-2-(2-methyl-1,3-benzoxazol-6-yl)-4H-pyrido[1,2-a]pyrimidin-4-one] | < 0.1 | **** (an EC1.5x≤0.3 μM is indicated by four stars (****)) | **** (a fold increase between >1.5 and ≤1.65 is indicated by four stars (****))
Cc1cn2cc(-c3cc(=O)n4cc(N5CCN(C)CC5)ccc4n3)cc(F)c2n1 [Compound 269, 2-(8-fluoro-2-methylimidazo[1,2-a]pyridin-6-yl)-7-(4-methylpiperazin-1-yl)-4H-pyrido[1,2-a]pyrimidin-4-one] | < 0.1 | **** (an EC1.5x≤0.3 μM is indicated by four stars (****)) | ***** (a fold increase >1.65 is indicated by five stars (*****))
Cc1cn2cc(-c3cc(=O)n4cc(N5CCN[C@H](C)C5)ccc4n3)cc(F)c2n1 [Compound 270, 2-(8-fluoro-2-methylimidazo[1,2-a]pyridin-6-yl)-7-[(3R)-3-methylpiperazin-1-yl]-4H-pyrido[1,2-a]pyrimidin-4-one] | < 0.1 | **** (an EC1.5x≤0.3 μM is indicated by four stars (****)) | **** (a fold increase between >1.5 and ≤1.65 is indicated by four stars (****))
Cc1cn2cc(-c3cc(=O)n4cc(N5CCC(N)CC5)ccc4n3)cc(F)c2n1 [Compound 273, 7-(4-aminopiperidin-1-yl)-2-(8-fluoro-2-methylimidazo[1,2-a]pyridin-6-yl)-4H-pyrido[1,2-a]pyrimidin-4-one] | < 0.1 | **** (an EC1.5x≤0.3 μM is indicated by four stars (****)) | ***** (a fold increase >1.65 is indicated by five stars (*****))
Cc1nc2ccc(-c3cc(=O)n4cc(N5CCC(N(C)C)CC5)ccc4n3)cc2s1 [Compound 285, 7-[4-(dimethylamino)piperidin-1-yl]-2-(2-methyl-1,3-benzothiazol-6-yl)-4H-pyrido[1,2-a]pyrimidin-4-one] | < 0.1 | **** (an EC1.5x≤0.3 μM is indicated by four stars (****)) | ***** (a fold increase >1.65 is indicated by five stars (*****))
Cc1nc2ccc(-c3cc(=O)n4cc(C5=CCNCC5)ccc4n3)cc2o1 [Compound 302, 2-(2-methyl-1,3-benzoxazol-6-yl)-7-(1,2,3,6-tetrahydropyridin-4-yl)-4H-pyrido[1,2-a]pyrimidin-4-one] | < 0.1 | **** (an EC1.5x≤0.3 μM is indicated by four stars (****)) | ***** (a fold increase >1.65 is indicated by five stars (*****))
Cc1nc2c(F)cc(-c3cc(=O)n4cc(N5CCN(C)CC5)ccc4n3)cc2o1 [Compound 308, 2-(4-fluoro-2-methyl-1,3-benzoxazol-6-yl)-7-(4-methylpiperazin-1-yl)-4H-pyrido[1,2-a]pyrimidin-4-one] | < 0.1 | **** (an EC1.5x≤0.3 μM is indicated by four stars (****)) | ***** (a fold increase >1.65 is indicated by five stars (*****))
COc1ccc(-c2cc(=O)n3cc(C4C[C@H]5CC[C@@H](C4)N5C)ccc3n2)cc1OC (stereo partly drawn) [Compound 320, 2-(3,4-dimethoxyphenyl)-7-[(1R,5S)-8-methyl-8-azabicyclo[3.2.1]oct-3-yl]-4H-pyrido[1,2-a]pyrimidin-4-one] | 0.3 to 1 | ** (an EC1.5× between >1 μM and ≤3 μM is indicated by two stars (**)) | **** (a fold increase between >1.5 and ≤1.65 is indicated by four stars (****))
